Assay results as given in patent publication US10576102B2, “KOC1-derived peptide and vaccine including same” (ONCOTHERAPY SCIENCE, INC., priority 2014, dated 2020).

Key:
peptide-pulsed C1R-A33 = experiment: In vitro CTL induction, IFN-gamma ELISPOT assay (HLA-A*3303); type: cell-based, human; details: CTLs induced with peptide-pulsed DCs from HLA-A*3303-positive volunteers; day 21; vs peptide-pulsed C1R-A33, compared with unpulsed control
Description: C1R (C1R-A33) that stably expresses HLA-A*3303 was used as a stimulator cell. A cDNA encoding the open-reading frame of HLA-A*3303 was amplified by PCR and cloned into an expression vector. C1R cells were transfected with the expression vector, and then selected using G418 (Invitrogen) for two weeks. The G418-selected cells were seeded into wells containing G418-added culture medium in a 96-well plate, and further cultured for 30 days. The exogenous HLA-A*3303 expression in C1R cells was verified by flow cytometric analysis.
Monocyte-derived dendritic cells (DCs) were used as the antigen-presenting cell to induce a cytotoxic T lymphocyte (CTL) response against peptides presented on human leukocyte antigens (HLAs). As described in the other sections, DCs were generated in vitro (Nakahara S et al., Cancer Res 2003, 63(14): 4112-8). Specifically, peripheral-blood mononuclear cells isolated from healthy volunteers (HLA-A*3303-positive) with the Ficoll-Paque plus solution (Pharmacia) were separated by attaching to plastic tissue culture dishes (Becton Dickinson) and concentrated as a monocyte fraction. The monocyte-concentrated population was cultured in the presence of 1000 IU/ml granulocyte macrophage colony-stimulating factor (R&D System) and 1000 IU/ml interleukin(IL)-4 (R&D System) in an AIM-V medium (Invitrogen) containing 2% heat-inactivated autologous serum (AS). After seven days of culturing, the cytokine-induced DCs were pulsed with 20 micro-g/ml each of the synthesized peptides in an AIM-V medium at 37 degrees C. for three hours in the presence of 3 micro-g/ml beta 2-microglobulin. The generated cells appeared to express on their cell surface DC-associated molecules such as CD80, CD83, CD86 and HLA class II (data not shown). Next, these peptide-pulsed DCs were inactivated by X-ray irradiation (20 Gy), and mixed in a 1:20 ratio with autologous CD8^+ T cells obtained by positive selection using the CD8 Positive Isolation Kit (Dynal). These culture products were seeded in a 48-well plate (Corning). Each well was made to contain 1.5×10^4 peptide-pulsed DCs, 3×10^5 CD8^+ T cells and 10 ng/ml IL-7 (R&D System) in 0.5 ml of the AIM-V/2% AS medium. Three days later, these culture products were added with a final concentration of 20 IU/ml IL-2 (CHIRON). On day 7 and day 14, T cells were further stimulated with peptide-pulsed autologous DCs. The DCs were prepared every time by the same method as above. On day 21, after the third peptide stimulation, CTLs were examined against the peptide-pulsed C1R-A33 cell by a human interferon (IFN)-gamma enzyme-linked immunospot (ELISPOT) assay (Tanaka H et al., Br J Cancer 2001, 84(1): 94-9; Umano Y et. al., Br J Cancer 2001, 84(8): 1052-7; Uchida N et al., Clin Cancer Res 2004, 10(24): 8577-86; Suda T et al., Cancer Sci 2006, 97(5): 411-9; Watanabe T et al., Cancer Sci 2005, 96(8): 498-506).
Specifically, peptide-pulsed C1R-A33 (1×10^4 cells/well) was prepared as the stimulator cell. The induced CTLs, i.e., CTL lines and CTL clones, were used as the responder cell. The IFN-gamma ELISPOT assay and IFN-gamma ELISA were performed according to the manufacturer's manual.

peptide-pulsed C1R-A11 = experiment: In vitro CTL induction, IFN-gamma ELISPOT assay (HLA-A*1101); type: cell-based, human; details: CTLs induced with peptide-pulsed DCs from HLA-A*1101-positive volunteers; day 21; vs peptide-pulsed C1R-A11, compared with unpulsed control
Outline: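 CD8+ T cells from HLA-A*1101-positive donors were stimulated three times (days 0, 7, 14) with irradiated autologous monocyte-derived DCs pulsed with 20 μg/ml peptide, in the presence of IL-7 and IL-2. On day 21, […] were tested by IFN-gamma ELISPOT against peptide-pulsed C1R-A11 stimulators at 1×10^4 cells/well.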

| Sequence | peptide-specific CTL activity (IFN-gamma production), ELISPOT (peptide-pulsed C1R-A33) | peptide-specific CTL activity (IFN-gamma production), ELISPOT (peptide-pulsed C1R-A11) |
| --- | --- | --- |
| ILAHNNFVGR (a peptide derived from KOC1) [SEQ ID NO: 52] | potent IFN-gamma production |  |
| TQFVGAIIGK (a peptide derived from KOC1) [SEQ ID NO: 30] |  | potent IFN-gamma production |
